Assay results reported in patent US20260217720A1, “COMPOSITIONS USEFUL FOR MODULATING SPLICING” (Skyhawk Therapeutics, Inc., priority 2023, published 2026).

How the values were obtained:
[1] = test system: ATXN3 transcripts containing exon 4; assay: ATXN3 Quantitative Splicing Assay (qPCR, E4E5 primers/probe); type: cell-based; conditions: Homo sapiens, SK-N-MC cells, 24 h treatment, read-out: ATXN3 Potency - Splicing E4E5 IC50 Mean
Protocol: Human neuroblastoma SK-N-MC cells were plated in 384-well plates at 20,000 cells/well. Twenty-four hours after plating, cells were treated with compounds for 24 h at appropriate concentrations ranging from 30 μM to 0.6 nM (0.3% DMSO). Treated cells were lysed in 15 μL of lysis buffer, and cDNA was synthesized using the Fast Advanced Cells-to-Ct kit. Two μL of each cDNA was used in qPCR reactions to confirm the exon 4 skipped transcripts of ATXN3. A second set of primers/probe E4E5 was used to detect the transcripts containing exon 4. The third set of primers/probe E8E9 was used to detect total gene level of ATXN3. The qPCR reactions were prepared in 384-well plates in 10 μL volume, using TaqMan™ Fast Advanced Master Mix with primers and probes shown in the table below. Reactions were run in a Quant Studio 6 qPCR instrument with default settings.
The primers and probes are listed below in Table 3.

total ATXN3 protein = assay: ATXN3 Total Protein Assay (MSD); type: cell-based, Human; conditions: SK-N-MC cells, 48 hours incubation, read-out: ATXN3 Potency - Protein IC50
Protocol: Human neuroblastoma SK-N-MC cells were seeded at 10,000 cells/well in 384 well plates one day prior to compound treatment. The concentrations of compounds were tested at appropriate doses ranging from 30 μM to 0.6 nM. After incubation for 48 hours, the cells were lysed with 25 μL of lysis buffer containing protease inhibitors, and total ATXN3 protein levels were assessed by Mesoscale Discovery (MSD) assay developed with one pair of anti-ATXN3 antibodies. The capture and detect antibodies were raised in mouse and rabbit respectively. Anti-rabbit MSD-ST antibody was used for secondary antibody.
ATXN3 recombinant protein was used for standards. The readouts were captured with 35 μL of MSD read buffer and multi-array 384-well high binding plates.

Row | IC50 [1] | IC50 (total ATXN3 protein) | Compound
1 | 501 to 5000 nM | 101 to 500 nM | Cc1c(C[C@@H](N)CF)cc2c(NCc3cccs3)cc(Cl)nn12 [Compound 5, (R)-6-(2-amino-3-fluoropropyl)-2-chloro-7-methyl-N-(thiophen-2-ylmethyl)pyrrolo[1,2-b]pyridazin-4-amine]
2 | 501 to 5000 nM |  | COC[C@H](N)Cc1cc2c(NCc3cccs3)cc(Cl)nn2c1C [Compound 3, (R)-6-(2-amino-3-methoxypropyl)-2-chloro-7-methyl-N-(thiophen-2-ylmethyl)pyrrolo[1,2-b]pyridazin-4-amine]
3 | 101 to 500 nM | 101 to 500 nM | Cc1c(C[C@@H](N)[C@H](C)F)cc2c(NCc3cccs3)cc(Cl)nn12 [Compound 6, 6-((2R,3S)-2-amino-3-fluorobutyl)-2-chloro-7-methyl-N-(thiophen-2-ylmethyl)pyrrolo[1,2-b]pyridazin-4-amine]
4 | 101 to 500 nM |  | C[C@H](F)[C@H](N)Cc1cc2c(NCc3cccs3)cc(Cl)nn2c1 [Compound 4, 6-((2R,3S)-2-amino-3-fluorobutyl)-2-chloro-N-(thiophen-2-ylmethyl)pyrrolo[1,2-b]pyridazin-4-amine]
5 | 0.01 to 100 nM |  | Cc1c(C[C@@H](N)CO)cc2c(NCc3cccs3)cc(Cl)nn12 [Compound 8, (R)-2-amino-3-(2-chloro-7-methyl-4-((thiophen-2-ylmethyl)amino)pyrrolo[1,2-b]pyridazin-6-yl) propan-1-ol]
6 | 0.01 to 100 nM |  | N[C@@H](COC(F)F)Cc1cc2c(NCc3cccs3)cc(Cl)nn2c1Cl [Compound 9, (R)-6-(2-amino-3-(difluoromethoxy)propyl)-2,7-dichloro-N-(thiophen-2-ylmethyl)pyrrolo[1,2-b]pyridazin-4-amine]
7 | 0.01 to 100 nM |  | N[C@@H](CF)Cc1cc2c(NCc3cccs3)cc(Cl)nn2c1Cl [Compound 10, (R)-6-(2-amino-3-fluoropropyl)-2,7-dichloro-N-(thiophen-2-ylmethyl)pyrrolo[1,2-b]pyridazin-4-amine]
8 | 101 to 500 nM |  | N[C@@H](CF)Cc1cc2c(NCc3cccs3)cc(Cl)nn2c1 [Compound 7, (R)-6-(2-amino-3-fluoropropyl)-2-chloro-N-(thiophen-2-ylmethyl)pyrrolo[1,2-b]pyridazin-4-amine]
9 | 0.01 to 100 nM |  | C[C@H](F)[C@H](N)Cc1cc2c(NCc3cccs3)cc(Cl)nn2c1Cl [Compound 11]

Row | Compound | IC50 [1] | IC50 (total ATXN3 protein)
10 | C[C@H](N)Cc1cc2c(NCc3cccs3)cc(Cl)nn2c1Cl [Compound 2, (S)-6-(2-aminopropyl)-2,7-dichloro-N-(thiophen-2-ylmethyl)pyrrolo[1,2-b]pyridazin-4-amine] | 0.01 to 100 nM | 
11 | Cc1c(C[C@H](C)N)cc2c(NCc3cccs3)cc(Cl)nn12 [Compound 1, (S)-6-(2-aminopropyl)-2-chloro-7-methyl-N-(thiophen-2-ylmethyl)pyrrolo[1,2-b]pyridazin-4-amine] | 101 to 500 nM | 101 to 500 nM
